In brackets after ≈: the same amount, converted by molar mass. Where two headings read alike, the source gives them in different places.

Data on 17 molecules can be found in patent US12180461B2 (priority 2018, dated 2024).

Data set [1] concerns Legionella pneumophila isolates. In words: microbe, parasite or virus in culture. The data set is classed as cell-based. The following applies: for MIC50 / MIC90: Legionella pneumophila; for MIC50: read-out: MIC50 (average); for MIC90: read-out: MIC90 (average).
Data set [2] concerns Staphylococcus aureus (ATCC strain 29213). Briefly: MIC of quality control strain on Mueller-Hinton agar and on Lasarus medium. In kind it is cell-based.
The subject of data set [3] is various strains of L. pneumophila. In kind it is cell-based.
A further data set concerns Legionella. In kind it is cell-based.
A further data set concerns rats. The following applies: rat, in vivo, po.
The mark [4] stands for this setting: 92 Legionella pneumophila isolates on Lasarus solid medium.
Setting [5] is: average across 92 Legionella pneumophila isolates on Lasarus solid medium.
The mark [6] stands for this setting: ATCC29213, S. aureus ATCC 29213 on Lasarus medium, read-out: MIC100 (on Lasarus medium).
Where [7] appears, read: ATCC29213, S. aureus ATCC 29213 on standard Mueller-Hinton agar, read-out: MIC100 (on M-Hinton).

As to Gentamycin, the “Ranges (MIC100)” value in data set [1] (setting [4]) fell in the range of 0.06 to 1 µg/mL. Moreover, in data set [1] (setting [5]), the “MIC50 (average)” value amounted to 0.25 µg/mL and the “MIC90 (average)” value stood at 0.5 µg/mL.
Consider `C[C@H]1COc2c(N3CCN(C)CC3)c(F)cc3c(=O)c(C(=O)O)cn1c23` [Levofloxacin], for which the “Ranges (MIC100)” value in data set [1] (setting [4]) was 0.008 to 0.06 µg/mL. Besides, the MIC50 in data set [1] turned out to be 0.03 µg/mL (≈ 0.083 µM). Moreover, the MIC90 in data set [1] amounted to 0.06 µg/mL (≈ 0.166 µM). Further, the MIC in data set [2] (setting [6]) and in data set [2] (setting [7]) was 0.25 µg/mL each time. In addition, the “number of strains that could grow (on average)” value in data set [3] (BCYE, antibiotic 1 μg/ml) is “more than 25 strains”; in data set [3] (BCYE, antibiotic 2 μg/ml), “more than 15 strains”. The “number of strains tested that could grow (on average)” value in data set [3] (Lasarus medium, antibiotic 0/03 μg/ml) is roughly 30 strains.
The LD50 is the dose expected to kill half of the subjects tested. Read a low LD50 as a more toxic substance. Take `[Cl-].[Rb+]` [RbCl, rubidium chloride]: in the data set with Legionella, the MIC50 stood at 150 mM and the MIC90 was found to be 150 mM. Moreover, the LD50 in the data set on rats turned out to be 4440 mg/kg.
For `O=C(N[C@H](CO)[C@H](O)c1ccc([N+](=O)[O-])cc1)C(Cl)Cl` [Chloramphenicol], the “Ranges (MIC100)” value in data set [1] (setting [4]) was 0.25 to 1 µg/mL. In addition, in data set [1], the MIC50 stood at 0.5 µg/mL (≈ 1.55 µM) and the MIC90 stood at 0.5 µg/mL (≈ 1.55 µM). Also, in data set [2] (setting [6]), the MIC worked out at 4 µg/mL. Besides, the MIC in data set [2] (setting [7]) was found to be 4 µg/mL.
Consider `[Cl-].[Cl-].[Sr+2]` [SrCl, strontium chloride], for which, in the data set with Legionella, the MIC50 was 18 mM and the MIC90 is reported as 18 mM. In addition, the LD50 in the data set with rats is on record as 2250 mg/kg.
In the data set with Legionella, `[Cl-].[Cs+]` [CsCl, caesium chloride] registered an MIC50 of 18 mM and an MIC90 of 37 mM. Further, the LD50 in the data set on rats turned out to be 2600 mg/kg.
In the data set on Legionella, `[Ba+2].[Cl-].[Cl-]` [BaCl2, barium chloride] showed an MIC50 of 4 mM and an MIC90 of 9 mM. In the data set on rats, the median lethal dose (LD50) worked out at 78 mg/kg.
Regarding beryllium sulfate [BeSO4], in the data set with Legionella, the MIC50 came out at 4 mM and the MIC90 is listed as 4 mM.
For the molecule `CO[C@H]1/C=C/O[C@@]2(C)Oc3c(C)c(O)c4c(O)c(c(/C=N/N5CCN(C)CC5)c(O)c4c3C2=O)NC(=O)/C(C)=C\C=C\[C@H](C)[C@H](O)[C@@H](C)[C@@H](O)[C@@H](C)[C@H](OC(C)=O)[C@@H]1C` [Rifampacin], the “Ranges (MIC100)” value in data set [1] (setting [4]) fell in the range of 0.002 to 0.008 µg/mL. The MIC50 in data set [1] came to 0.004 µg/mL (≈ 0.00486 µM). In addition, the MIC90 in data set [1] stood at 0.008 µg/mL (≈ 0.00972 µM). Further, the MIC in data set [2] (setting [6]) and in data set [2] (setting [7]) was 0.016 µg/mL throughout. The “number of strains that could grow (on average)” value in data set [3] (BCYE, antibiotic 0.06 μg/ml) is “more than 30 strains”; in data set [3] (BCYE, antibiotic 0.125 μg/ml) it was “more than 15 strains”. Moreover, the “number of strains tested that could grow (on average)” value in data set [3] (Lasarus medium, antibiotic 0.004 μg/ml, quadruplicate) is listed as roughly 35 strains. Also, in data set [3] (medium, antibiotic concentration printed as 0.004 μg/ml (second mention)), the “number of strains that could grow (on average), reduced number” value was “less than 15 strains”.
In the data set with Legionella, `[Cl-].[Na+]` [NaCl, sodium chloride] had an MIC50 of 150 mM and an MIC90 of 150 mM. In the data set with rats, this molecule showed an LD50 of 3000 mg/kg.
Take `[Ca+2].[Cl-].[Cl-]` [CaCl2, calcium chloride]: in the data set with Legionella, the MIC50 is given as 9 mM and the MIC90 stood at 18 mM. This molecule also yielded an LD50 in the data set on rats of 1000 mg/kg.
On the same counts, the results for `[Cl-].[Cl-].[Mg+2]` [MgCl, magnesium chloride] are 37 mM, 75 mM and 2800 mg/kg.
`CC[C@H]1OC(=O)[C@H](C)[C@@H](O[C@H]2C[C@@](C)(OC)[C@@H](O)[C@H](C)O2)[C@H](C)[C@@H](O[C@@H]2O[C@H](C)C[C@H](N(C)C)[C@H]2O)[C@](C)(O)C[C@@H](C)CN(C)[C@H](C)[C@@H](O)[C@]1(C)O` [Azithromycin]: the “Ranges (MIC100)” value in data set [1] (setting [4]) fell in the range of 0.008 to 0.25 µg/mL. For the same molecule, the MIC50 in data set [1] is 0.03 µg/mL (≈ 0.0401 µM). Further, in data set [1], the MIC90 is 0.125 µg/mL (≈ 0.167 µM). Moreover, the MIC in data set [2] (setting [6]) and in data set [2] (setting [7]) was 2 µg/mL throughout. Also, the “number of strains that could grow (on average)” value in data set [3] (BCYE, antibiotic 0.25 μg/ml) was “more than 20 strains”; in data set [3] (BCYE, antibiotic 0.5 μg/ml), greater than 5 strains; in data set [3] (medium (Lasarus), antibiotic 0.06 μg/ml), “less than 15 strains”. Further, in data set [3] (Lasarus medium, antibiotic 0.03 μg/ml), the “number of strains tested that could grow (on average)” value is roughly 20 strains. For the same molecule, in data set [3] (Lasarus medium, antibiotic 0.125 μg/ml), the “number of strains tested that could grow” value is reported as “None”.
In the case of `O=C(O)c1cn(C2CC2)c2cc(N3CCNCC3)c(F)cc2c1=O` [Ciprofloxacin], the “Ranges (MIC100)” value in data set [1] (setting [4]) fell in the range of 0.008 to 0.06 µg/mL. In data set [1], the MIC50 was 0.03 µg/mL (≈ 0.0905 µM) and the MIC90 is 0.06 µg/mL (≈ 0.181 µM).
`CC1(C)S[C@@H]2[C@H](NC(=O)[C@H](N)c3ccccc3)C(=O)N2[C@H]1C(=O)O` [Ampacilin]: in data set [1], the “MIC50 (average)” value was 8 µg/mL (≈ 22.9 µM), the “MIC90 (average)” value came to 32 µg/mL (≈ 91.6 µM) and the “Ranges (MIC100)” value was 1 to 32 µg/mL.
As to `CN(C)[C@@H]1C(O)=C(C(N)=O)C(=O)[C@@]2(O)C(O)=C3C(=O)c4c(O)cccc4[C@@](C)(O)[C@H]3C[C@@H]12` [Tetracycline], in data set [1] (setting [4]), the “Ranges (MIC100)” value lay within 32 to 128 µg/mL. In data set [1], the MIC50 turned out to be 128 µg/mL (≈ 288 µM) and the MIC90 is 128 µg/mL (≈ 288 µM).
Take `[Cl-].[Li+]` [LiCl, lithium chloride]: in the data set with Legionella, the MIC50 is reported as 75 mM and the MIC90 was determined as 75 mM. In the data set with rats, the LD50 is given as 526 mg/kg.
